The source of these data is ChEMBL document CHEMBL1146526, “Two unusual acetogenins from the roots of Annona salzmanii” (J Nat Prod, 2003).

SMILES strings stand for the structures. ≈ marks a conversion by molar mass, not a printed value.

One series deals with KB. In words: Cytotoxicity against human KB cells. In kind it is functional.
Series [1] in a line: Cytotoxicity against african green monkey Vero cells after 24 hrs. It is filed as cell-based. The note with it: chlorocebus sabaeus, read-out: ED50.

For the molecule `CCCCCCCCCC[C@@H](O)[C@@H](O)CC[C@H](O)[C@@H]1CC[C@@H]([C@@H](O)CCCCCCCCCCC(O)CC2=CC(C)(O)OC2=O)O1` (stereo not given in full) [PARISIN], the ED50 with KB is reported as 1 ×10⁻⁴ ug/ml.

Take `CCCCC[C@H](O)[C@@H](O)CCC[C@@H](O)[C@@H]1CC[C@@H](C2CC(O)[C@@H]([C@@H](O)CCCCCCCCCCCCC3=CC(C)OC3=O)O2)O1` (stereo not given in full) [SALZMANOLIN]: in the series on KB (Homo sapiens, KB, read-out: ED50 (the source's name)), the EC50 amounted to 0.001 µg/mL (≈ 0.00153 µM). Further, the CC50 at 24 h in series [1] came to 0.01 µg/mL (≈ 0.0153 µM).

For the molecule `CC[C@]1(O)C[C@@H]2CN(CCc3c([nH]c4ccccc34)[C@@](C(=O)OC)(c3cc4c(cc3OC)N(C)[C@H]3[C@@](O)(C(=O)OC)[C@H](OC(C)=O)[C@]5(CC)C=CCN6CC[C@]43[C@@H]65)C2)C1` [VINBLASTINE], the ED50 in the series with KB came to 0.1 ×10⁻⁴ ug/ml. Further, in series [1], the CC50 at 24 h was greater than 0.1 µg/mL.
